Laboratory results taken from patent US20220204539A1, “CD73 INHIBITORS” (BioArdis LLC, priority 2019, published 2022).
pIC50: −log10 of the molar value.

Assays:
[1] = biological target: T1, Cell surface CD73 of U87 MG human glioblastoma cells (Homo sapiens, UniProt P21589); experiment: CD73 Cellular Assay; type: cell-based; details: 5000 cells per well, 30 μM AMP substrate, read-out: Potency (IC50, CD73 cellular assay)
T1 construct: Cell surface CD73 catalyzes the conversion of adenosine monophosphate (AMP) to adenosine and inorganic phosphate; endogenous in cells; host or cells: U87 MG human glioblastoma cells
T1 sequence (P21589 27-549): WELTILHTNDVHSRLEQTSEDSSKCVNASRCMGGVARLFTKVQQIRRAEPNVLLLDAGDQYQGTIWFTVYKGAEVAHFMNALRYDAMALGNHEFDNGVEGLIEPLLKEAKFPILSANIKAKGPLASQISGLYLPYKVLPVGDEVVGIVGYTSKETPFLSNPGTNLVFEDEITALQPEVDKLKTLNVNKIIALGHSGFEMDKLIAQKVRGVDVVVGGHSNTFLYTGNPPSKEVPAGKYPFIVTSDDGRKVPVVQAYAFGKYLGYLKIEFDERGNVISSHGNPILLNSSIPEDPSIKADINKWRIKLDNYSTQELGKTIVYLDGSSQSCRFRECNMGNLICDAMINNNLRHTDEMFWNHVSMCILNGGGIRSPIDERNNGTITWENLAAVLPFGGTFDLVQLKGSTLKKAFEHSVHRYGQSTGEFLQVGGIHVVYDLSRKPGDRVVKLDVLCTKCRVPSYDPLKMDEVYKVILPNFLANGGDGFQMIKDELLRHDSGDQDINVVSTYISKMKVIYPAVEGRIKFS
Method in brief: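 U87 MG cells (5000/well) preincubated with compound 30 min at 37 °C, 5% CO2, in HEPES-buffered saline pH 7.4 with 0.5% DMSO, then 30 μM AMP (final) for 50 min. Released phosphate in supernatant read colorimetrically at 635 nm; IC50 from four-parameter logistic fit versus cells-plus-substrate and cells-only controls.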

[2] = biological target: T2, Recombinant Human 5′-Nucleotidase (CD73) (Homo sapiens, UniProt P21589); experiment: CD73 Enzyme Assay; type: biochemical; details: human CD73 0.5 nM, AMP 30 μM, PiColorLock phosphate detection; read-out: Potency (IC50, CD73 enzyme assay)
T2 construct: CHO derived CD73 (Trp27-Lys547), with a C-terminal 6-His tag; 6-His (C); purchased R&D 5795-EN; host or cells: CHO
T2 sequence (P21589 27-547): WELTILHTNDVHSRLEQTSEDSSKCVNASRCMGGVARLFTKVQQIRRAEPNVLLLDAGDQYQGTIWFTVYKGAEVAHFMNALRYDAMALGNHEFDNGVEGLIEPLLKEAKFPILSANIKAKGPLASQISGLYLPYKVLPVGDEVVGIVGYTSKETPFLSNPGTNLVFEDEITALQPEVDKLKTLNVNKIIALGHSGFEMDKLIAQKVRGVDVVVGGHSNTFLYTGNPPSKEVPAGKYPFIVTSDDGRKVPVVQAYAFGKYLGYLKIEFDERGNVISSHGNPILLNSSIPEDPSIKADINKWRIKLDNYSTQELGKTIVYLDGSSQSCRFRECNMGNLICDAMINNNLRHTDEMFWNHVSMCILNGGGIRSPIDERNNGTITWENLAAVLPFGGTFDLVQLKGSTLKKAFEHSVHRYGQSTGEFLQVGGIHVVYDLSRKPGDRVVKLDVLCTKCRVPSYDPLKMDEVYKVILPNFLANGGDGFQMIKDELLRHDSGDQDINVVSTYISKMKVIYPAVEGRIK
Method in brief: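 Human CD73 (CHO-derived Trp27-Lys547, His-tagged; 0.5 nM final) was preincubated with compound for 15 min at 25° C. in Tris pH 7.5 buffer with MgCl2. It then reacted with 30 μM AMP for 20 min at 37° C., and released phosphate was read by malachite green absorbance at 635 nm. IC50 came from four-parameter fits against enzyme and no-enzyme controls.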

| pIC50 [1] | pIC50 [2] | SMILES |
| --- | --- | --- |
| > 9.00 | > 8.00 | O=P(O)(O)CP(=O)(O)OC[C@H]1O[C@@H](c2cnc3c(NC4CC5CCC4C5)nc(Cl)nn23)[C@H](O)[C@@H]1O (stereo partly drawn) [Compound 50, [({[(2R,3S,4R,5S)-5-(4-{bicyclo[2.2.1]heptan-2-ylamino}-2-chloroimidazo[2,1-f][1,2,4]triazin-7-yl)-3,4-dihydroxyoxolan-2-yl]methoxy}(hydroxy)phosphoryl)methyl]phosphonic acid] |
| > 9.00 | > 8.00 | C[C@H](Nc1nc(Cl)nn2c([C@@H]3O[C@H](COP(=O)(O)CP(=O)(O)O)[C@@H](O)[C@H]3O)cnc12)c1ccc(F)c(F)c1 [Compound 52, (((((2R,3S,4R,5S)-5-(2-chloro-4-(((S)-1-(3,4-difluorophenyl)ethyl)amino)imidazo[2,1-f][1,2,4]triazin-7-yl)-3,4-dihydroxytetrahydrofuran-2-yl)methoxy)(hydroxy)phosphoryl)methyl) phosphonic acid] |
| > 9.00 | > 8.00 | C[C@H](Nc1nc(Cl)nn2c([C@@H]3O[C@H](COP(=O)(O)CP(=O)(O)O)[C@@H](O)[C@H]3O)cnc12)c1ccc(Cl)c(Cl)c1 [Compound 53, (((((2R,3S,4R,5S)-5-(2-chloro-4-(((S)-1-(3,4-dichlorophenyl)ethyl)amino)imidazo[2,1-f][1,2,4]triazin-7-yl)-3,4-dihydroxytetrahydrofuran-2-yl)methoxy)(hydroxy)phosphoryl)methyl)phosphonic acid] |
| > 9.00 | > 8.00 | C[C@H](Nc1nc(Cl)nn2c([C@@H]3O[C@H](COP(=O)(O)CP(=O)(O)O)[C@@H](O)[C@H]3O)cnc12)c1ccc(Cl)cc1 [Compound 54, (((((2R,3S,4R,1S)-5-(2-chloro-4-(((S)-1-(4-chlorophenyl)ethyl)amino)imidazo[2,1-f][1,2,4]triazin-7-yl)-3,4-dihydroxytetrahydrofuran-2-yl)methoxy)(hydroxy)phosphoryl)methyl)phosphonic Acid] |
| > 9.00 | > 8.00 | O=P(O)(O)CP(=O)(O)OC[C@H]1O[C@@H](c2cnc3c(N4CCC[C@H]4c4ccccc4F)nc(Cl)nn23)[C@H](O)[C@@H]1O [Compound 55, (((((2R,3S,4R,1S)-5-(2-chloro-4-((S)-2-(2-fluorophenyl)pyrrolidin-1-yl)imidazo[2,1-f][1,2,4]triazin-7-yl)-3,4-dihydroxytetrahydrofuran-2-yl)methoxy)(hydroxy)phosphoryl)methyl)phosphonic Acid] |
| > 9.00 | > 8.00 | O=P(O)(O)CP(=O)(O)OC[C@H]1O[C@@H](c2cnc3c(N[C@H]4CCc5ccccc54)nc(Cl)nn23)[C@H](O)[C@@H]1O [Compound 63, [({[(2R,3S,4R,5S)-5-{2-chloro-4-[(1S)-2,3-dihydro-1H-inden-1-ylamino]imidazo[2,1-f][1,2,4]triazin-7-yl}-3,4-dihydroxyoxolan-2-yl]methoxy}(hydroxy)phosphoryl)methyl] phosphonic acid] |
| 7.00 to 8.00 | 7.00 to 8.00 | C[C@H](Nc1nc(Cl)nn2c(C3O[C@H](COP(=O)(O)CP(=O)(O)O)[C@@H](O)[C@@H]3F)cnc12)c1ccccc1F (stereo partly drawn) [Compound 74, (((((2R,3R,4S)-5-(2-chloro-4-(((S)-1-(2-fluorophenyl)ethyl)amino)imidazo[2,1-f][1,2,4]triazin-7-yl)-4-fluoro-3-hydroxytetrahydrofuran-2-yl)methoxy)(hydroxy)phosphoryl)methyl)phosphonic Acid] |

Further lines, the compound ahead of its results:

| SMILES | pIC50 [1] | pIC50 [2] |
| --- | --- | --- |
| O=P(O)(O)CP(=O)(O)OC[C@H]1O[C@@H](c2cnc3c(N4CCCC[C@H]4c4ccccc4)nc(Cl)nn23)[C@H](O)[C@@H]1O [Compound 56, (((((2R,3S,4R,1S)-5-(2-chloro-4-((S)-2-phenylpiperidin-1-yl)imidazo[2,1-f][1,2,4]triazin-7-yl)-3,4-dihydroxytetrahydrofuran-2-yl)methoxy)(hydroxy)phosphoryl)methyl)phosphonic Acid] | > 9.00 | > 8.00 |
| N#Cc1nc(NC2CCCC2)c2ncc([C@@H]3O[C@H](COP(=O)(O)CP(=O)(O)O)[C@@H](O)[C@H]3O)n2n1 [Compound 62, (((((2R,3S,4R,5S)-5-(2-cyano-4-(cyclopentylamino)imidazo[2,1-f][1,2,4]triazin-7-yl)-3,4-dihydroxytetrahydrofuran-2-yl)methoxy)(hydroxy)phosphoryl)methyl)phosphonic Acid] | > 9.00 | > 8.00 |
| O=P(O)(O)CP(=O)(O)OC[C@H]1O[C@@H](c2cnc3c(N4CCC[C@H]4c4ccccc4)nc(Cl)nn23)[C@H](O)[C@@H]1O [Compound 64, (((((2R,3S,4R,1S)-5-(2-chloro-4-((S)-2-phenylpyrrolidin-1-yl)imidazo[2,1-f][1,2,4]triazin-7-yl)-3,4-dihydroxytetrahydrofuran-2-yl)methoxy)(hydroxy)phosphoryl)methyl)phosphonic Acid] | > 9.00 | > 8.00 |
| NC(=O)c1nc(NC2CCCC2)c2ncc([C@@H]3O[C@H](COP(=O)(O)CP(=O)(O)O)[C@@H](O)[C@H]3O)n2n1 [Compound 66, (((((2R,3S,4R,5S)-5-(2-carbamoyl-4-(cyclopentylamino)imidazo[2,1-f][1,2,4]triazin-7-yl)-3,4-dihydroxytetrahydrofuran-2-yl)methoxy)(hydroxy)phosphoryl)methyl)phosphonic Acid] | > 9.00 | > 8.00 |
| O=P(O)(O)CP(=O)(O)OC[C@H]1O[C@@H](c2cnc3c(N4CC5CCCC5C4)nc(Cl)nn23)[C@@H](F)[C@@H]1O (stereo partly drawn) [Compound 72, (((((2R,3R,4S,5S)-5-(2-chloro-4-(hexahydrocyclopenta[c]pyrrol-2(1H)-yl)imidazo[2,1-f][1,2,4]triazin-7-yl)-4-fluoro-3-hydroxytetrahydrofuran-2-yl)methoxy)(hydroxy)phosphoryl)methyl) phosphonic Acid] | 8.00 to 9.00 | > 8.00 |
| O=P(O)(O)CP(=O)(O)OC[C@H]1OC(c2cnc3c(N4CCCC4)nc(Cl)nn23)[C@@H](F)[C@@H]1O (stereo partly drawn) [Compound 73, (((((2R,3R,4S)-5-(2-chloro-4-(pyrrolidin-1-yl)imidazo[2,1-f][1,2,4]triazin-7-yl)-4-fluoro-3-hydroxytetrahydrofuran-2-yl)methoxy)(hydroxy)phosphoryl)methyl)phosphonic Acid] | 8.00 to 9.00 | 7.00 to 8.00 |
| O=P(O)(O)CP(=O)(O)OC[C@H]1O[C@@H](c2cnc3c(N4CCC(F)(F)C4)nc(Cl)nn23)[C@@H](F)[C@@H]1O [Compound 75, (((((2R,3R,4S,5S)-5-(2-chloro-4-(3,3-difluoropyrrolidin-1-yl)imidazo[2,1-f][1,2,4]triazin-7-yl)-4-fluoro-3-hydroxytetrahydrofuran-2-yl)methoxy)(hydroxy)phosphoryl)methyl)phosphonic Acid] | 8.00 to 9.00 | 7.00 to 8.00 |
